According to the METLIN SMRT retention time set (Domingo-Almenara et al. 2019):

Test: gradient 5% acetonitrile 3 min, to 50% in 2 min, to 85% in 15 min, held 3 min, 100 µL/min
Details: column: Zorbax Extend-C18 2.1 x 50 mm; eluents: water / acetonitrile, 0.1% formic acid
How it was run: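 Values are retention times taken from adduct peaks that software picked and an analyst inspected. The pure standards were run as mixtures of ~100 molecules on HPLC linked to a quadrupole time-of-flight mass spectrometer, in positive and negative ionization mode. A Zorbax Extend-C18 column (2.1 × 50 mm, 1.8 μm) was used at 100 μL/min with water and acetonitrile, each including 0.1% formic acid.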

SMILES | RP-LC retention time [s]
Cc1ccc(Sc2nccnc2N2CCCC(C(=O)NC(C)c3ccccc3)C2)cc1 (stereo not drawn) | 1140
CC(C)c1ccc(NC(=O)Cn2nc(N3CCSCC3)c3ccccc3c2=O)cc1 | 1070
CC(C)(c1ccccc1)c1cc(CN2CCOCC2)c(O)c(CN2CCOCC2)c1 | 575
O=C(Cn1nc2n(c1=O)CCCC2)Nc1ccc2c(c1)OCO2 | 638
CCC(C)n1c(=O)c2ccccc2n(Cc2nc(-c3cc(OC)cc(OC)c3)no2)c1=O (stereo not drawn) | 1180
O=C(NCc1ccco1)C1(c2ccc(F)cc2)CC1 | 788
Clc1cncc(N2CCNCC2)n1 | 614
C=CCN1CCN(C(=O)C2=NN(c3ccc(C)cc3)c3ncccc3S2(=O)=O)CC1 | 637
Cc1cc2nn(CC(=O)Nc3ccc(F)cc3)c(=O)n2c(Nc2ccc(F)cc2)n1 | 972
Nc1c(C(=O)Nc2nc(-c3ccccc3)cs2)sc2nc3c(cc12)CCCCC3 | 1170
CCc1nnc2ccc(-c3noc(Cc4cccc(Cl)c4)n3)cn12 | 896
COc1cccc(NC(=O)C2CCCN(S(=O)(=O)c3c[nH]c(C(=O)N4CCCCCC4)c3)C2)c1 (stereo not drawn) | 882
CSc1ccc(CNC(=O)c2cccc(-c3nc4cccnc4n3C)c2)cc1 | 759
C=CCN1C(=O)COc2ccc(-c3csc(NC(=O)c4ccccc4)n3)cc21 | 982
CCc1ccc(NC(=O)Cn2nc3cc(C)nc(Nc4ccc(C)c(F)c4)n3c2=O)cc1 | 1190
CCOC(=O)C1CCN(C(=O)C2CCN(S(=O)(=O)c3ccc(OCC)cc3)CC2)CC1 | 878
CCCN1N=C(C(=O)N2CCOCC2)S(=O)(=O)c2cc(Cl)ccc21 | 813
CC(C)NC(=O)c1ccc(OCC2CCN(C(=O)c3cccs3)CC2)cc1 | 757
CCc1ccc(S(=O)(=O)N2CCc3c(c(-c4nnc(-c5ccccc5)o4)nn3C)C2)cc1 | 1030
O=C(Cc1ccccc1F)N1CCc2[nH]cnc2C1c1ccccc1 (stereo not drawn) | 632
O=C(NC1CCN(c2nnc3ccc(Cl)cn23)CC1)c1ccco1 | 606
COc1cc(C(C)=O)ccc1OC(=O)c1cc2c(C)nn(-c3ccccc3)c2s1 | 1190
CC(=O)N1C(=O)C2(NCC(C)N2)c2ccccc21 (stereo not drawn) | 625

SMILES | RP-LC retention time [s]
Cc1ccc(-c2cn3c(CC(=O)NCCC4=CCCCC4)csc3n2)cc1C | 942
CCCNc1nc(N2CCOCC2)nc(N2CC3CC(C2)c2cccc(=O)n2C3)n1 (stereo not drawn) | 562
CCOc1ccccc1NC(=O)Cn1nc2c(Oc3cccc(F)c3)nccn2c1=O | 906
c1ccc(-n2cnnc2C2CCCCN2Cc2ccncc2)cc1 (stereo not drawn) | 584
O=C(Cn1ncc2c(c1=O)N(C1CC1)C(=O)CS2)NCc1ccco1 | 648
O=C(NC1CCCC1)C(=O)c1cccn1Cc1ccc(F)cc1 | 1020
Cc1cccc(Sc2nccnc2N2CCCC(C(=O)NCCN3CCOCC3)C2)c1 (stereo not drawn) | 686
CCOc1cccc(C2c3[nH]c4ccccc4c3CCN2C(=O)Cc2cccs2)c1 (stereo not drawn) | 1180
CC(=O)c1cccc(NC2=NS(=O)(=O)C(c3cccc(Cl)c3)=C2C)c1 | 902
O=C(NCCCN1CCN(c2ccccc2)CC1)c1ccc(F)cc1F | 590
COc1ccc(CN2CC(C(=O)N3CCCN(c4cc(=O)n(C)c(=O)n4C)CC3)CC2=O)cc1 (stereo not drawn) | 629
COc1ccc(C)cc1NC(=O)C1CCCN(C(=O)C2Sc3ccccc3NC2=O)C1 (stereo not drawn) | 852
CCc1noc(-c2cccnc2N2CCCN(Cc3cccc(F)c3)CC2)n1 | 660
CCNS(=O)(=O)c1cccnc1Nc1ccccc1 | 904
O=S(=O)(c1ccc(-c2nnc(C3CC3)o2)o1)N1CCCCCC1 | 898
O=C(O)CCC1CCN(C(=O)c2ccccc2Cl)CC1 | 677
Cc1ccc(-c2noc(CN3C(=O)COc4ccccc43)n2)cc1 | 1030
COc1cc(OC)cc(C(=O)N2CCN(c3cc(-c4cccnc4)[nH]n3)CC2)c1 | 570
Cc1ccc(N2CCN(C(=O)c3cn4cc(C)ccc4n3)CC2)cc1 | 690
NC(=O)C1CCN(C(=O)Cc2csc(NC(=O)Nc3ccccc3)n2)CC1 | 622
Cc1ccc(NC(=O)Cn2ccc3sccc3c2=O)c(C)c1 | 766
COc1cc(OC)c(OC)cc1CN1CCC(C)(c2noc(C3CCOCC3)n2)CC1 | 642
O=C1OCC2=C1C(c1ccccc1)NC(=O)N2CC(=O)N1CCCCC1 (stereo not drawn) | 672

SMILES | RP-LC retention time [s]
Cc1ccc(Cn2cc(-c3ccncc3)cc2C(=O)N2CCN(CC(C)C)CC2)cc1 | 582
O=C(CN1CC=C(c2cnn(-c3ccc(F)cc3)c2)CC1)NC1CCCCC1 | 695
CCOc1ccc(-c2[nH]ncc2CNS(=O)(=O)c2ccc(C(F)(F)F)cc2)cc1 | 918
CN(C)C(=O)c1csc(S(=O)(=O)N2CCC(C(=O)NCc3cccs3)CC2)c1 | 718
C[C@@H]1CCC2(NC1)O[C@H]1C[C@H]3[C@@H]4CC=C5C[C@@H](O)CC[C@]5(C)[C@H]4CC[C@]3(C)[C@H]1[C@H]2C (stereo partly drawn) | 757
CC(C)(C)C(=O)Nc1cnc(-c2ccc(F)cc2)nc1 | 960
CCOc1ccc(NC(=O)CSC2CCCCC2)cc1 | 975
O=C(Nc1ccccc1)N1CCC(n2cnc3ccc(F)cc3c2=O)CC1 | 742
CC(C)NC(=O)C1CCN(C(=O)c2ncn3c2COC(c2ccc(Cl)cc2)C3)CC1 (stereo not drawn) | 679
Cc1ccc(-c2noc(-c3ccccc3S(=O)(=O)NC3CCCC3)n2)cc1 | 1300
O=C1CC(c2nc(-c3ccccc3F)no2)CN1c1ccc2c(c1)OCCO2 (stereo not drawn) | 860
Cc1ccc(-c2noc(-c3nc(-c4ccccn4)no3)n2)cc1 | 1090
Cc1cc(C(=O)N2CCOCC2)nn1CC(=O)NCCc1c[nH]c2ccccc12 | 637
Cc1noc([C@@H]2CC(F)(F)CN2C(=O)c2ccoc2C)n1 | 756
O=C(NCc1ccc(Br)cc1)c1cn2nc(Cl)ccc2n1 | 882
CCCCn1c(=O)c2ccccc2n(Cc2nc(-c3ccc(Cl)cc3)no2)c1=O | 1280
Cc1cc(NCC(O)c2ccc([N+](=O)[O-])cc2)nc(-n2nc(C)cc2C)n1 (stereo not drawn) | 592
O=C(Nc1c(-c2ccc(F)cc2)nc2ccccn12)c1ccccc1F | 639
CC(N)C(=O)OC(C)(C)Cc1ccc(Cl)cc1 (stereo not drawn) | 757
Cn1cccc1C(=O)Nc1cnn(-c2ncc(N3CCCC3)cn2)c1 | 789
O=C(NCc1ccccc1Cl)C1CCCN(C(=O)NC2CC2)C1 (stereo not drawn) | 652
C=CCNC(=O)c1sc(Nc2cccc(C)n2)nc1C | 697
